Data published in EPA's ToxValDB 9.5 (doi:10.2903/j.efsa.2012.2879).
≈ marks a conversion by molar mass, not a printed value.

Legend:
Apis mellifera = conditions: acute; duration: 48 hours; dermal; mortality
Colinus virginianus = conditions: acute, oral, mortality
Daphnia magna = conditions: chronic/long-term; duration: 21 days; reproduction

**Q.** How did the NOEC (Anas platyrhynchos; reproductive, reproduction) turn out when `Cc1cc(C)c(C2=C(OC(=O)CC(C)(C)C)C3(CCCC3)OC2=O)c(C)c1` [Spiromesifen] was run?
**A.** 229 mg/kg

**Q.** And the LC50 (Anas platyrhynchos; short-term, oral, feed, mortality)?
**A.** > 5000 mg/kg

**Q.** What about the LD50 (Apis mellifera) of the same compound?
**A.** > 200 µg/piece

**Q.** What about the LC50 (Colinus virginianus; diet) of the same compound?
**A.** > 5000 mg/kg

**Q.** And the LD50 (Colinus virginianus)?
**A.** > 2000 mg/kg

**Q.** What about the NOEC (Daphnia magna) of the same compound?
**A.** 0.00025 mg/L

**Q.** What about the NOAEL (Mus musculus; chronic, duration: 18 months) of the same compound?
**A.** 3 mg/kg-day

**Q.** What about the NOAEL (Mus musculus; subchronic, duration: 90 days, oral, clinical chemistry) of the same compound?
**A.** 3 mg/kg-day

**Q.** What about the LC50 (Oncorhynchus mykiss; acute, duration: 96 hours, mortality) of the same compound?
**A.** 0.016 mg/L (≈ 0.0432 µM)

**Q.** What about the NOEC (Oncorhynchus mykiss; chronic/long-term, duration: 97 days) of the same compound?
**A.** 0.00473 mg/L

**Q.** And the NOAEL (Rattus norvegicus; acute, neurology)?
**A.** 2000 mg/kg-day

**Q.** And the LD50 (Rattus norvegicus; acute, oral, mortality)?
**A.** > 2500 mg/kg

**Q.** What about the NOEC (Rattus norvegicus; reproduction developmental, reproduction) of the same compound?
**A.** 30 mg/kg-day

**Q.** What about the LC50 (Tagia sp.; acute, duration: 14 days, mortality) of the same compound?
**A.** > 1000 mg/kg

**Q.** What about the NOEC (Tagia sp.; chronic/long-term, duration: 56 days, reproduction) of the same compound?
**A.** 4.32 mg/kg
